Literature values in patent US20210363253A1, “USE OF COMBINED TREATMENT OF PD-1 ANTIBODY AND APATINIB FOR TREATING TRIPLE NEGATIVE BREAST CANCER” (JIANGSU HENGRUI MEDICINE CO., LTD., priority 2017, published 2021).

Settings: with oxaliplatin, 5-Fu, docetaxel, doxorubicin; preclinical animal experiments

SMILES: N#CC1(c2ccc(NC(=O)c3cccnc3NCc3ccncc3)cc2)CCCC1 [Apatinib]
- efficacy of cytotoxic drugs in combination with Apatinib: significantly increase their efficacy
